Results from patent US8329755B2, “Methods for treating retroviral infections” (Roche Palo Alto LLC, priority 2004, dated 2012).

CSCCNS(=O)(=O)c1ccc(NC(=O)Cc2ccc(C)c(Oc3cc(Cl)cc(C#N)c3)c2)c(C)c1 [Compound I-130, 2-[3-(3-Chloro-5-cyano-phenoxy)-4-methyl-phenyl]-N-[2-methyl-4-(2-methylsulfanyl-ethylsulfamoyl)-phenyl]-acetamide]
melting point: 155.6 to 156.6 °C

CSCCCNS(=O)(=O)c1ccc(NC(=O)Cc2ccc(C)c(Oc3cc(Cl)cc(C#N)c3)c2)c(C)c1 [Compound I-131, 2-[3-(3-Chloro-5-cyano-phenoxy)-4-methyl-phenyl]-N-[2-methyl-4-(3-methylsulfanyl-propylsulfamoyl)-phenyl]-acetamide]
melting point: 159.9 to 162.8 °C

COc1cc(CC(=O)Nc2ccc(S(N)(=O)=O)cc2)cc(Oc2cc(Cl)cc(C#N)c2)c1 [Compound I-132, 2-[3-(3-Chloro-5-cyano-phenoxy)-5-methoxy-phenyl]-N-(4-sulfamoyl-phenyl)-acetamide]
melting point: 184.1 to 185.5 °C

COc1cc(CC(=O)Nc2ccc(S(N)(=O)=O)cc2C)cc(Oc2cc(Cl)cc(C#N)c2)c1 [Compound I-133, 2-[3-(3-Chloro-5-cyano-phenoxy)-5-methoxy-phenyl]-N-(2-methyl-4-sulfamoyl-phenyl)-acetamide]
melting point: 169.9 to 171.1 °C

COc1cc(CC(=O)Nc2ccc(S(N)(=O)=O)cc2Cl)cc(Oc2cc(Cl)cc(C#N)c2)c1 [Compound I-136, 2-[3-(3-Chloro-5-cyano-phenoxy)-5-methoxy-phenyl]-N-(2-chloro-4-sulfamoyl-phenyl)-acetamide]
melting point: 159 to 161.1 °C

Cc1cc(S(=O)(=O)CCC#N)ccc1NC(=O)Cc1ccc(C)c(Oc2cc(Cl)cc(C#N)c2)c1 [Compound I-137, 2-[3-(3-Chloro-5-cyano-phenoxy)-4-methyl-phenyl]-N-[4-(2-cyano-ethanesulfonyl)-2-methyl-phenyl]-acetamide]
melting point: 186.1 to 188 °C

CCCC(=O)NS(=O)(=O)c1ccc(NC(=O)Cc2ccc(Cl)c(Oc3cc(Cl)cc(C#N)c3)c2F)c(Cl)c1.[Na] [Compound I-138, N-(4-Butyrylsulfamoyl-2-chloro-phenyl)-2-[4-chloro-3-(3-chloro-5-cyano-phenoxy)-2-fluoro-phenyl]-acetamide; sodium salt]
melting point: 157.2 to 157.9 °C

CCCC(=O)N(C)S(=O)(=O)c1ccc(NC(=O)Cc2ccc(Cl)c(Oc3cc(Cl)cc(C#N)c3)c2F)c(Cl)c1 [Compound I-139, N-[4-(Butyryl-methyl-sulfamoyl)-2-chloro-phenyl]-2-[4-chloro-3-(3-chloro-5-cyano-phenoxy)-2-fluoro-phenyl]-acetamide]
melting point: 186.9 to 187.6 °C

CCc1ccc(CC(=O)Nc2ccc(S(N)(=O)=O)cc2Cl)cc1Oc1cc(C#N)cc(C(F)F)c1 [Compound I-140, N-(2-Chloro-4-sulfamoyl-phenyl)-2-[3-(3-cyano-5-difluoromethyl-phenoxy)-4-ethyl-phenyl]-acetamide]
melting point: 191.8 to 192.5 °C

Cc1cc(CC(=O)Nc2ccc(S(N)(=O)=O)cc2)cc(Oc2cc(Cl)cc(C#N)c2)c1 [Compound I-141, 2-[3-(3-Chloro-5-cyano-phenoxy)-5-methyl-phenyl]-N-(4-sulfamoyl-phenyl)-acetamide]
melting point: 183.9 to 185.2 °C

Cc1cc(CC(=O)Nc2ccc(S(N)(=O)=O)cc2C)cc(Oc2cc(Cl)cc(C#N)c2)c1 [Compound I-142, 2-[3-(3-Chloro-5-cyano-phenoxy)-5-methyl-phenyl]-N-(2-methyl-4-sulfamoyl-phenyl)-acetamide]
melting point: 184.8 to 186 °C

Cc1cc(CC(=O)Nc2ccc(S(N)(=O)=O)cc2Cl)cc(Oc2cc(Cl)cc(C#N)c2)c1 [Compound I-143, 2-[3-(3-Chloro-5-cyano-phenoxy)-5-methyl-phenyl]-N-(2-chloro-4-sulfamoyl-phenyl)-acetamide]
melting point: 194.1 to 195.9 °C

N#Cc1cccc(Oc2cc(CC(=O)Nc3ccc(S(N)(=O)=O)cc3)cc3ccoc23)c1 [Compound I-144, 2-[7-(3-Cyano-phenoxy)-benzofuran-5-yl]-N-(4-sulfamoyl-phenyl)-acetamide]
melting point: 196.4 to 198.7 °C

Cc1cc(S(N)(=O)=O)ccc1NC(=O)Cc1cc(Oc2cccc(C#N)c2)c2occc2c1 [Compound I-145, 2-[7-(3-Cyano-phenoxy)-benzofuran-5-yl]-N-(2-methyl-4-sulfamoyl-phenyl)-acetamide]
melting point: 218.9 to 220 °C

Cc1cc(CC(=O)Nc2ccc(S(N)(=O)=O)cc2)cc(Oc2cc(C#N)ccc2Cl)c1 [Compound I-146, 2-[3-(2-Chloro-5-cyano-phenoxy)-5-methyl-phenyl]-N-(4-sulfamoyl-phenyl)-acetamide]
melting point: 235.9 to 236.7 °C

Cc1cc(CC(=O)Nc2ccc(S(N)(=O)=O)cc2C)cc(Oc2cc(C#N)ccc2Cl)c1 [Compound I-147, 2-[3-(2-Chloro-5-cyano-phenoxy)-5-methyl-phenyl]-N-(2-methyl-4-sulfamoyl-phenyl)-acetamide]
melting point: 200.3 to 201.1 °C

Cc1cc(CC(=O)Nc2ccc(S(N)(=O)=O)cc2Cl)cc(Oc2cc(C#N)ccc2Cl)c1 [Compound I-148, 2-[3-(2-Chloro-5-cyano-phenoxy)-5-methyl-phenyl]-N-(2-chloro-4-sulfamoyl-phenyl)-acetamide]
melting point: 212.9 to 214.4 °C

NS(=O)(=O)c1ccc(NC(=O)Cc2cc(Oc3cc(Cl)cc(Cl)c3)c3occc3c2)c(Cl)c1 [Compound I-149, N-(2-Chloro-4-sulfamoyl-phenyl)-2-[7-(3,5-dichloro-phenoxy)-benzofuran-5-yl]-acetamide]
melting point: 215.1 to 216.6 °C

Cc1cc(OC[C@@H](O)CO)ccc1NC(=O)Cc1ccc(C)c(Oc2cc(Cl)cc(C#N)c2)c1 [Compound I-150, 2-[3-(3-Chloro-5-cyano-phenoxy)-4-methyl-phenyl]-N-[4-((S)-2,3-dihydroxy-propoxy)-2-methyl-phenyl]-acetamide]
melting point: 137.5 to 138.4 °C

Cc1cc(OCC[C@@H](O)CO)ccc1NC(=O)Cc1ccc(C)c(Oc2cc(Cl)cc(C#N)c2)c1 [Compound I-151, 2-[3-(3-Chloro-5-cyano-phenoxy)-4-methyl-phenyl]-N-[4-((R)-3,4-dihydroxy-butoxy)-2-methyl-phenyl]-acetamide]
melting point: 104.9 to 106.4 °C

Cc1cc(S(=O)(=O)CC(=O)O)ccc1NC(=O)Cc1ccc(C)c(Oc2cc(Cl)cc(C#N)c2)c1 [Compound I-152, (4-{2-[3-(3-Chloro-5-cyano-phenoxy)-4-methyl-phenyl]-acetylamino}-3-methyl-benzenesulfonyl)-acetic acid]
melting point: 180.5 to 181.4 °C

Cc1cc(S(=O)(=O)CCN)ccc1NC(=O)Cc1ccc(C)c(Oc2cc(Cl)cc(C#N)c2)c1 [Compound I-154, N-[4-(2-Amino-ethanesulfonyl)-2-methyl-phenyl]-2-[3-(3-chloro-5-cyano-phenoxy)-4-methyl-phenyl]-acetamide]
melting point: 92.4 to 95.5 °C

Cc1cc(S(=O)(=O)CCCO)ccc1NC(=O)Cc1ccc(C)c(Oc2cc(Cl)cc(C#N)c2)c1 [Compound I-157, 2-[3-(3-Chloro-5-cyano-phenoxy)-4-methyl-phenyl]-N-[4-(3-hydroxy-propane-1-sulfonyl)-2-methyl-phenyl]-acetamide]
melting point: 78.9 to 79.5 °C

Cc1cc(N2CCCCS2(=O)=O)ccc1NC(=O)Cc1ccc(C)c(Oc2cc(Cl)cc(C#N)c2)c1 [Compound I-158, 2-[3-(3-Chloro-5-cyano-phenoxy)-4-methyl-phenyl]-N-[4-(1,1-dioxo-1λ^6-[1,2]thiazinan-2-yl)-2-methyl-phenyl]-acetamide]
melting point: 84.3 to 85.6 °C

Cc1cc(C(=O)CN2CCN(C)CC2)ccc1NC(=O)Cc1ccc(C)c(Oc2cc(Cl)cc(C#N)c2)c1 [Compound I-159, 2-[3-(3-Chloro-5-cyano-phenoxy)-4-methyl-phenyl]-N-{2-methyl-4-[2-(4-methyl-piperazin-1-yl)-acetyl]-phenyl}-acetamide]
melting point: 62.3 to 64.1 °C

Cc1cc(N2CC[S+]([O-])CC2)ccc1NC(=O)Cc1ccc(C)c(Oc2cc(Cl)cc(C#N)c2)c1 [Compound I-160, 2-[3-(3-Chloro-5-cyano-phenoxy)-4-methyl-phenyl]-N-[2-methyl-4-(1-oxo-1λ^4-thiomorpholin-4-yl)-phenyl]-acetamide]
melting point: 181.3 to 182.1 °C

Cc1cc(N2CCS(=O)(=O)CC2)ccc1NC(=O)Cc1ccc(C)c(Oc2cc(Cl)cc(C#N)c2)c1 [Compound I-161, 2-[3-(3-Chloro-5-cyano-phenoxy)-4-methyl-phenyl]-N-[4-(1,1-dioxo-1λ^6-thiomorpholin-4-yl)-2-methyl-phenyl]-acetamide]
melting point: 64.8 to 65.4 °C

CCC(=O)N(C)S(=O)(=O)c1ccc(NC(=O)Cc2ccc(Cl)c(Oc3cc(Cl)cc(C#N)c3)c2F)c(Cl)c1 [Compound I-162, 2-[4-Chloro-3-(3-chloro-5-cyano-phenoxy)-2-fluoro-phenyl]-N-[2-chloro-4-(methyl-propionyl-sulfamoyl)-phenyl]-acetamide]
melting point: 198.2 to 200.6 °C

N#Cc1cc(Oc2c(Br)ccc(CC(=O)Nc3ccc(S(N)(=O)=O)cc3Cl)c2F)cc(C(F)F)c1 [Compound I-165, 2-[4-Bromo-3-(3-cyano-5-difluoromethyl-phenoxy)-2-fluoro-phenyl]-N-(2-chloro-4-sulfamoyl-phenyl)-acetamide]
melting point: 205.4 to 207.7 °C

CNS(=O)(=O)c1ccc(NC(=O)Cc2ccc(Cl)c(Oc3cc(Cl)cc(C#N)c3)c2F)c(Cl)c1 [Compound I-168, 2-[4-Chloro-3-(3-chloro-5-cyano-phenoxy)-2-fluoro-phenyl]-N-(2-chloro-4-methylsulfamoyl-phenyl)-acetamide]
melting point: 199.1 to 200 °C

Cc1cc(S(N)(=O)=O)ccc1NC(=O)Cc1ccc(Br)c(Oc2cc(C#N)cc(C(F)F)c2)c1F [Compound I-169, 2-[4-Bromo-3-(3-cyano-5-difluoromethyl-phenoxy)-2-fluoro-phenyl]-N-(2-methyl-4-sulfamoyl-phenyl)-acetamide]
melting point: 223.9 to 225 °C

Cc1cc(N2CCCS2(=O)=O)ccc1NC(=O)Cc1ccc(C)c(Oc2cc(Cl)cc(C#N)c2)c1 [Compound I-170, 2-[3-(3-Chloro-5-cyano-phenoxy)-4-methyl-phenyl]-N-[4-(1,1-dioxo-1λ^6-isothiazolidin-2-yl)-2-methyl-phenyl]-acetamide]
melting point: 182.5 to 184.6 °C
